ChEMBL document CHEMBL4138077, “Rational design, synthesis and biological screening of triazine-triazolopyrimidine hybrids as multitarget anti-Alzheimer agents” (Eur J Med Chem, 2017)
Activity calls are given as the source filed them. The rule behind the calls is not given here.

Assays:
Cholinesterase = Cholinesterase (Equus caballus, UniProt P81908); test: Inhibition of equine serum BuChE using butyrylthiocholine iodide as substrate preincubated for 5 mins followed by substrate addition measured after 2 mins by spectroscopy based Ellman's method
[1] = biological target: T1, Amyloid-beta precursor protein (Homo sapiens, UniProt P05067)
Description: Inhibition of HFIP-pretreated amyloid beta (1 to 42 residues) (unknown origin) self aggregation after 24 hrs by ThT-based fluorometric method

[2] = biological target: T1, Amyloid-beta precursor protein; test: Inhibition of HFIP-pretreated amyloid beta (1 to 42 residues) (unknown origin) self aggregation at 25 uM after 24 hrs by ThT-based fluorometric method
Acetylcholinesterase [3] = biological target: T2, Acetylcholinesterase (Electrophorus electricus, UniProt O42275); test: Inhibition of electric eel AChE using acetylthiocholine iodide as substrate preincubated for 5 mins followed by substrate addition measured after 2 mins by spectroscopy based Ellman's method
[4] = Metal chelating activity assessed as inhibition of Cu2+-induced amyloid beta (1 to 42 residues) aggregation at 50 uM after 24 hrs by thioflavin-T fluorescence assay
[5] = biological target: T1, Amyloid-beta precursor protein; test: Inhibition of amyloid beta (1 to 42) (unknown origin) fibril formation at 25 uM after 24 hrs by uranyl acetate staining based transmission electron microscopic method
[6] = Metal chelating activity of the compound assessed as formation of Zn2+-compound complex by measuring change in red shift in maximum absorption at 50 uM after 30 mins by UV-vis spectrophotometric method (reference value: […] nanometer)
[7] = Metal chelating activity assessed as inhibition of Cu2+-induced amyloid beta (1 to 42 residues) aggregation by measuring reduction in amyloid fibrils at 50 uM after 24 hrs by uranyl acetate staining based transmission electron microscopic analysis
[8] = Metal chelating activity of the compound assessed as formation of Fe2+-compound complex by measuring change in red shift in maximum absorption at 50 uM after 30 mins by UV-vis spectrophotometric method (reference value: […] nanometer)
Acetylcholinesterase [9] = biological target: T2, Acetylcholinesterase; test: Mixed-type inhibition of electric eel AChE using varying levels of acetylthiocholine iodide as substrate preincubated for 15 mins followed by substrate addition by Lineweaver-Burk plot analysis
[10] = biological target: T1, Amyloid-beta precursor protein; test: Binding affinity to amyloid beta (1 to 42) (unknown origin) assessed as increase in alpha helix conformation at 10 uM after 12 hrs by CD spectroscopic method
[11] = Metal chelating activity of the compound assessed as mole fraction of compound causing 1:1 stoichiometry for formation of Cu2+-compound complex at 50 uM after 30 mins by UV-vis spectrophotometric method
[12] = biological target: T1, Amyloid-beta precursor protein; test: Binding affinity to amyloid beta (1 to 42) (unknown origin) assessed as decrease in beta sheet and random structure conformation at 10 uM after 12 hrs by CD spectroscopic method
[13] = (§1) Metal chelating activity of the compound assessed as formation of Cu2+-compound complex by measuring change in red shift in maximum absorption at 50 uM after 30 mins by UV-vis spectrophotometric method (reference value: […] nanometer)
[14] = as §1; remark: listed apart in the source

T1 sequence (P05067 whole entry, the tested form may be a part): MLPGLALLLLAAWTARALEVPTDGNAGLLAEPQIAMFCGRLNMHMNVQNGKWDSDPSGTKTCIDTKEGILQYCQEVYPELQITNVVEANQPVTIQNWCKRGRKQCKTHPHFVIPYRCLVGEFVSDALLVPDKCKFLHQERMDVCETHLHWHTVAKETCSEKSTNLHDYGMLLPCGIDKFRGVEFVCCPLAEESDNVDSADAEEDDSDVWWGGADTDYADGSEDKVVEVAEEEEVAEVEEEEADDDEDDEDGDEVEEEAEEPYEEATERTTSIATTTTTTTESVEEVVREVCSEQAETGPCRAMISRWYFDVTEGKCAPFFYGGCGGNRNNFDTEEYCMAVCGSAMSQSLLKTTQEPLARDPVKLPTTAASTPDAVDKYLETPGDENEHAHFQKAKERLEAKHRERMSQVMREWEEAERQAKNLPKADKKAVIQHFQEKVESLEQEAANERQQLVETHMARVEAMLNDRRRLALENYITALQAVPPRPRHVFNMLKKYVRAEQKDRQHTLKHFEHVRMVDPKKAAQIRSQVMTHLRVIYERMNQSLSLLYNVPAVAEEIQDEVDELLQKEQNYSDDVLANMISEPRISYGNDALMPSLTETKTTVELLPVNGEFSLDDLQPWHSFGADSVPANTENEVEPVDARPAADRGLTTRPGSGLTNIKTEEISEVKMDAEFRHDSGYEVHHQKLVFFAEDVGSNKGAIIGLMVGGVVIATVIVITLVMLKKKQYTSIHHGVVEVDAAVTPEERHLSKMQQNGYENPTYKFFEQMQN
T2 sequence (O42275 whole entry, the tested form may be a part): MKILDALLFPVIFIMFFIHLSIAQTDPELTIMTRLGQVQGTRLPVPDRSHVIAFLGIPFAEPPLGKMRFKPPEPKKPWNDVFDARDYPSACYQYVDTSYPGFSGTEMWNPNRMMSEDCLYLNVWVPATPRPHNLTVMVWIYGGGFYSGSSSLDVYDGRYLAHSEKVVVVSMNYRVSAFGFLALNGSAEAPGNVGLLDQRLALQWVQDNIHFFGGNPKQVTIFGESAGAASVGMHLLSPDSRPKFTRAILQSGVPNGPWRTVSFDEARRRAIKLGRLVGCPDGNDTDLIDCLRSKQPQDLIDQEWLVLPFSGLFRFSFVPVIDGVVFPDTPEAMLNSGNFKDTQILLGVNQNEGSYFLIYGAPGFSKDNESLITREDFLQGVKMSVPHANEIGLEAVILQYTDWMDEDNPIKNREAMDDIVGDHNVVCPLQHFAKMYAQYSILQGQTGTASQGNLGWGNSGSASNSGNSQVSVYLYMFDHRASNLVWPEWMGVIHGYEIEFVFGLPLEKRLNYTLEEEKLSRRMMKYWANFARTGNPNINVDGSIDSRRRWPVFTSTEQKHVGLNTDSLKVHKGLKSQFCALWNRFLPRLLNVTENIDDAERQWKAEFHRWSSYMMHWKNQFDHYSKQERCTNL
Chain of Cholinesterase (P81908 whole entry): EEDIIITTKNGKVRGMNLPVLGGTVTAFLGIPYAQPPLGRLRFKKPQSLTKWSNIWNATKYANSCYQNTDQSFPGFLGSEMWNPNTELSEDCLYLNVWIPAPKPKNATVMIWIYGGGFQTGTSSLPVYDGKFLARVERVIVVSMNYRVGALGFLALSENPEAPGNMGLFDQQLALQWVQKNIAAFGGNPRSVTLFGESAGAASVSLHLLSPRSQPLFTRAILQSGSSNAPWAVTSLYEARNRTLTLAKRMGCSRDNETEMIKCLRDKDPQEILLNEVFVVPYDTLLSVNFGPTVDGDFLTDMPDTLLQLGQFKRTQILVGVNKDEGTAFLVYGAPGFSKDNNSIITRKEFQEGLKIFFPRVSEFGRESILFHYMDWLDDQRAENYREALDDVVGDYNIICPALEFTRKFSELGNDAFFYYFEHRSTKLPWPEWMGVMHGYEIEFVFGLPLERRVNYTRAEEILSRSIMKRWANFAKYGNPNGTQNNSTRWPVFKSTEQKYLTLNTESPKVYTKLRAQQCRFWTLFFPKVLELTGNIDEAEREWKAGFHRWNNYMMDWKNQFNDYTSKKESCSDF

Compound	IC50 (Cholinesterase)	IC50 [1]	inhibition [2]	IC50 (Acetylcholinesterase [3])	further results
Cc1ccc(Nc2nc(Cl)nc(Nc3ccc(F)c(Cl)c3)n2)cc1	2.77 µM	18 µM	62.5%	0.917 µM	
Cc1cc(N2CCN(c3nc(Cl)nc(Nc4ccccc4F)n3)CC2)n2ncnc2n1	2.23 µM	13.4 µM	65.8%	0.286 µM	
COc1cc(/C=C/C(=O)CC(=O)/C=C/c2ccc(O)c(OC)c2)ccc1O					inhibition [4]: 60.3%; inhibition [5]: Active
Cc1cc(N2CCN(c3nc(Nc4cccc(C(F)(F)F)c4)nc(Nc4ccc(F)c(Cl)c4)n3)CC2)n2ncnc2n1	2.61 µM	16.3 µM	61.7%	0.388 µM	
Fc1ccc(Nc2nc(Cl)nc(Nc3cccc(C(F)(F)F)c3)n2)c(F)c1	4.33 µM	17.9 µM	65.2%	0.496 µM	
Cc1cc(N2CCN(c3nc(Cl)nc(Nc4ccc(F)cc4)n3)CC2)n2ncnc2n1	0.93 µM	15.9 µM	64.5%	0.115 µM	
Fc1ccc(Nc2nc(Cl)nc(Nc3cccc(C(F)(F)F)c3)n2)cc1Cl	3.98 µM		46.2%	0.432 µM	
FC(F)(F)c1cccc(Nc2nc(NC3CC3)nc(N3CCNCC3)n2)c1	3.65 µM	23.5 µM	58.8%	1.25 µM	
COc1ccc(Nc2nc(Cl)nc(N3CCN(c4cc(C)nc5ncnn45)CC3)n2)cc1	1.52 µM	11.5 µM	68.5%	0.092 µM	Activity [6]: 236 nm; inhibition [4]: 66.6%; inhibition [7]: Active; Activity [8]: 234 nm; Ki (Acetylcholinesterase [9]): 0.102 µM; Activity [10]: Active; Activity (mole fraction) [11]: 0.96; inhibition [5]: Active; Activity [12]: Active
COc1ccc(Nc2nc(Cl)nc(Nc3cccc(C(F)(F)F)c3)n2)cc1	2.96 µM	17.6 µM	67.2%	0.591 µM	
Fc1ccc(Nc2nc(Cl)nc(Nc3cccc(C(F)(F)F)c3)n2)cc1	2.45 µM	18.6 µM	63%	0.526 µM	
Cc1ccc(Nc2nc(Nc3ccc(F)c(Cl)c3)nc(N3CCN(c4cc(C)nc5ncnn45)CC3)n2)cc1	3.78 µM	25 µM	49.3%	0.859 µM	
Cc1cc(N2CCN(c3nc(Nc4ccc(F)cc4)nc(Nc4cccc(C(F)(F)F)c4)n3)CC2)n2ncnc2n1	2.49 µM	18.3 µM	54.7%	0.724 µM	
Cc1cc(N2CCN(c3nc(Cl)nc(Nc4cccc(C(F)(F)F)c4)n3)CC2)n2ncnc2n1	1.88 µM	10.4 µM	75.3%	0.065 µM	Activity [6]: Active; inhibition [4]: 69.7%; inhibition [7]: Active; Activity [13]: 214 nm; Activity [8]: Active; Ki (Acetylcholinesterase [9]): 0.069 µM; Activity [10]: Active; Activity [14]: 238 nm; Activity (mole fraction) [11]: > 0.9; inhibition [5]: Active; Activity [12]: Active
Cc1ccc(Nc2nc(Nc3cccc(C(F)(F)F)c3)nc(N3CCN(c4cc(C)nc5ncnn45)CC3)n2)cc1	1.75 µM		22.4%	0.558 µM	
Cc1cc(N2CCN(c3nc(Nc4cccc(C(F)(F)F)c4)nc(NC4CC4)n3)CC2)n2ncnc2n1	1.9 µM		44.3%	0.903 µM	
COc1ccc(Nc2nc(Cl)nc(Nc3ccc(F)c(Cl)c3)n2)cc1	1.64 µM	23.8 µM	60.7%	0.705 µM	
Cc1ccc(Nc2nc(Cl)nc(Nc3cccc(C(F)(F)F)c3)n2)cc1	2.09 µM	20.7 µM	64.8%	0.672 µM	
